From patent US4405643A, “Treatment of acute pulmonary edema with arginine esters” (Italfarmaco S.p.A., priority 1979, dated 1983)
Where a name gives a salt, the structure may show the parent alone.

Legend:
[1] = Protection against pulmonary edema (adrenaline-induced acute edema of the lungs); format: in vivo, male albino rats of Wistar type; conditions: parenteral, 15 min before adrenaline
Procedure: The method of A. M. Rothschild and A. Castania (Arch. Pharmacol., 295, 177 (1976)), has been used to develop the acute edema in the lungs and substances of known therapeutic activity have been used for comparison purpose.
For the test, male albino rats of Wistar type of average weight 250-350 grams, have been used for the test. The rats were stabilized for a period of ten days at a temperature of 21°±1° C., under conditions of controlled diet and water "ad libitum". Prior to the test, the animals were divided into groups of ten for the purpose of achieving good randomization. Each dose was tried on three groups of animals. The animals were anesthetized with pentobarbital in a dose of 30 mg/kg at the beginning of the test. After the animals were in complete narcosis, the following substances were administered by the parenteral route:
1. to the animals as controls, physiological saline solution in the amount of 1 ml/kg,
2. to the animals in the test, a solution of the substance being tested in physiological saline solution in the amount of 1 ml/kg in the doses reported hereinbelow in the table.
After a period of 15 minutes, for the purpose of determining the protective activity of the substances, adrenaline was administered in the amount of 16 γ/kg by the endovenous route and in physiological saline solution, for the purpose of causing acute edema.
After five minutes, the animals were killed by removal of the head, the lungs were removed and the weight of the lungs were determined. The results of the test are reported in Table 1 hereinbelow, together with the concentration of the substances and the relative inhibition of edema in percent.

[2] = Protection against anaphylactic shock (horse serum); format: in vivo, male albino guinea pigs; conditions: parenteral, with horse serum challenge, after 12 h
Procedure: The anaphylactic shock has been induced according to the method of S. M. Feinberg, M. Pharmacol. Exp. Therapeut., 99, 195 (1950). There have been used male albino guinea pigs of average weight, 350±20 grams previously stabilized for a period of ten days at a temperature of 21°±1° C., under conditions of controlled diet and water "ad libitum". Three days before the beginning of the experiment, the animals are divided in groups of ten for the purpose of achieving good randomization. Each single dose has been tried on three groups of animals.
The sensitization has been carried out by administration of 1 ml/guinea pig through the endovenous route of horse serum, (whole serum, not treated with preservatives) diluted 1:10 in physiological saline solution. After 14 days, the solutions of the substances being tested and the samples of physiological solutions for use with the controls are administered through the parenteral route. Simultaneously, 1 ml/guinea pig of horse serum, undiluted is administered, this substance being used as the agent which prompts the anaphylaxis. The percentage of mortality is determined after 12 hours.

[3] = Protection against shock caused by endotoxins (lipopolysaccharide B from S. Enteritidis); format: in vivo, male rats of Wistar type; conditions: parenteral, 1 h before endotoxin, after 24 h
Excerpt: Endotoxin-induced shock has been produced according to the method reported by A. Bertelli and L. Donati, in the publication "The Influence of Some Enzymes and Enzymes Inhibitors in Shock", published in "SHOCK Biochemical,Pharmaceutical and Clinical Aspects"; A. Bertelli and N. Back Editors, Advances in Experimental Medicine and Biology; Volume 9, Plenum Press New York - London 1970, page 215. By way of comparison, there has been used a substance of well known therapeutical activity, specifically aprotinine, the commercial products marketed by Farbenfabriken Bayer, under the name "Trasylol". Male rats of Wistar type of 120 grams by weight ±10 have been used. The rats were previously stabilized for a period of ten days at a temperature of 21°±1° C. under a controlled diet and water "ad libitum". Twenty-four hours prior to the test, the animals were divided in groups of ten for the purpose of achieving randomization. Every single dose has been tried on six groups of animals.
Lipopolysaccharide B from S. Enteritidis (Difco Labs.) was used as the endotoxin. This substance was administered in the dose of 10 mg/kg by the endoperitoneal route, one hour after administration of the substance being administered by the parenteral route or in the form of a physiological solution in equal volume per kilogram to the animals being used as control.
The mortality in percent was determined in the animals being tested as compared with the controls after twenty-four hours.

[4] = system: Fibrin Degradation Products; experiment: Inhibition of hyperfibrinolysis caused by urokinase (F.D.P., staphylococcal clumping test); format: in vivo, Wistar rats; conditions: parenteral, 30 min before urokinase 2500 U.I/rat
Procedure: The induction of hyperfibrinolysis state is caused by administration of urokinase. The determination of the inhibition is carried out by determination of the F.D.P. value, that is Fibrin Degradation Products, according to the procedure of J. Hawiger et al, J. Lab. Clin. Med. 75, 93 (1970), by means of the staphylococcal clumping test (Boehringer Mannheim GmbH test).
There are used Wistar rats of 300 grams ±10 by weight previously stabilized for a period of ten days at a temperature of 21°±1° C., under conditions of controlled diet and water "ad libitum". Twenty-four hours prior to the beginning of the experiment, the animals are divided in groups of ten for the purpose of achieving randomization. Each individual dose is tried on three groups of animals.
At the beginning of the test, zero time, the compounds being tested are administered through the parenteral route. In the case of the control animals, at the same time an equal volume of a physiological saline solution is administered except that some blood is removed by means of a cardiac puncture, for the purpose of determining the basal fibrinolytic activity. After 30 minutes, human urokinase (the composition marketed by Ukidan-Serono) is administered intravenously in the amount of 2500 U.I/rat. After an additional period of ten minutes, blood is removed by means of a cardiac puncture for the final determination of F.D.P., a determination which is expressed in […].

CC(=O)Oc1ccccc1C(=O)O [Aspirin]
% INHIBITION OF EDEMA ([1]; dose 1 mg/kg): 32.2%
% INHIBITION OF EDEMA ([1]; dose 2.5 mg/kg): 36.9%
% INHIBITION OF EDEMA ([1]; dose 5 mg/kg): 48.2%
% INHIBITION OF EDEMA ([1]; dose 10 mg/kg): 54.3%
% INHIBITION OF EDEMA ([1]; dose 20 mg/kg): 19.6%

CCO [Ethanol]
% MORTALITY ([2]; dose 2 mg/kg): 76.4%
% MORTALITY ([2]; dose 4 mg/kg): 74%
% MORTALITY ([2]; dose 8 mg/kg): 76.5%
% MORTALITY ([3]; dose 2 mg/kg): 67%
% MORTALITY ([3]; dose 4 mg/kg): 69%
% MORTALITY ([3]; dose 8 mg/kg): 73%
% INHIBITION OF EDEMA ([1]; dose 0.08 mg/kg): 7%
% INHIBITION OF EDEMA ([1]; dose 0.8 mg/kg): 12%
% INHIBITION OF EDEMA ([1]; dose 2 mg/kg): 15%
% INHIBITION OF EDEMA ([1]; dose 4 mg/kg): 14.7%
% INHIBITION OF EDEMA ([1]; dose 8 mg/kg): 16%
% INHIBITION OF EDEMA ([1]; dose 16 mg/kg): 15.9%
F.D.P. ([4]; dose 2 mg/kg): 3.06 milliliters
F.D.P. ([4]; dose 4 mg/kg): 2.95 milliliters
F.D.P. ([4]; dose 8 mg/kg): 3.11 milliliters

NC[C@H]1CC[C@H](C(=O)O)CC1 [Tranexamic Acid, trans4-(aminomethyl)cyclohexancarboxylic acid]
F.D.P. ([4]; dose 5 mg/kg): 0.58 milliliters
F.D.P. ([4]; dose 10 mg/kg): 0.39 milliliters
F.D.P. ([4]; dose 20 mg/kg): 0.33 milliliters

CCOC(=O)[C@@H](N)CCCNC(=N)N [L-A.E., LArginine ethyl ester hydrochloride]
% MORTALITY ([2]; dose 10 mg/kg): 35%
% MORTALITY ([2]; dose 20 mg/kg): 23%
% MORTALITY ([2]; dose 50 mg/kg): 9.5%
% MORTALITY ([3]; dose 5 mg/kg): 51.3%
% MORTALITY ([3]; dose 10 mg/kg): 48.2%
% MORTALITY ([3]; dose 20 mg/kg): 37.5%
% MORTALITY ([3]; dose 50 mg/kg): 25.0%
% INHIBITION OF EDEMA ([1]; dose 0.1 mg/kg): 3.4%
% INHIBITION OF EDEMA ([1]; dose 0.25 mg/kg): 32.2%
% INHIBITION OF EDEMA ([1]; dose 0.5 mg/kg): 33.3%
% INHIBITION OF EDEMA ([1]; dose 1 mg/kg): 55.7%
% INHIBITION OF EDEMA ([1]; dose 2.5 mg/kg): 47.9%
% INHIBITION OF EDEMA ([1]; dose 5 mg/kg): 41.0%
% INHIBITION OF EDEMA ([1]; dose 10 mg/kg): 38.9%
% INHIBITION OF EDEMA ([1]; dose 20 mg/kg): 39.7%
F.D.P. ([4]; dose 5 mg/kg): 0.50 milliliters
F.D.P. ([4]; dose 10 mg/kg): 0.33 milliliters
F.D.P. ([4]; dose 20 mg/kg): 0.27 milliliters

N=C(N)NCCC[C@H](N)C(=O)O [L-Arginine.2HCl]
% MORTALITY ([2]; dose 10 mg/kg): 78.5%
% MORTALITY ([2]; dose 20 mg/kg): 76.3%
% MORTALITY ([2]; dose 50 mg/kg): 80%
% MORTALITY ([3]; dose 5 mg/kg): 69%
% MORTALITY ([3]; dose 10 mg/kg): 73%
% MORTALITY ([3]; dose 20 mg/kg): 71%
% MORTALITY ([3]; dose 50 mg/kg): 78%
% INHIBITION OF EDEMA ([1]; dose 1 mg/kg): 7%
% INHIBITION OF EDEMA ([1]; dose 2.5 mg/kg): 9%
% INHIBITION OF EDEMA ([1]; dose 5 mg/kg): 11%
% INHIBITION OF EDEMA ([1]; dose 10 mg/kg): 10.1%
% INHIBITION OF EDEMA ([1]; dose 20 mg/kg): 13.1%
F.D.P. ([4]; dose 5 mg/kg): 3.28 milliliters
F.D.P. ([4]; dose 10 mg/kg): 2.96 milliliters
F.D.P. ([4]; dose 20 mg/kg): 3.15 milliliters
